For the assay, the target named is T1, IRAK4 (Homo sapiens, UniProt Q9NWZ3).
T1 construct: Degradation of IRAK4 in OCI-LY10 was quantitatively measured using Meso Scale Discovery technology; endogenous in cells; host or cells: OCI-LY10
T1 sequence (Q9NWZ3 1-460): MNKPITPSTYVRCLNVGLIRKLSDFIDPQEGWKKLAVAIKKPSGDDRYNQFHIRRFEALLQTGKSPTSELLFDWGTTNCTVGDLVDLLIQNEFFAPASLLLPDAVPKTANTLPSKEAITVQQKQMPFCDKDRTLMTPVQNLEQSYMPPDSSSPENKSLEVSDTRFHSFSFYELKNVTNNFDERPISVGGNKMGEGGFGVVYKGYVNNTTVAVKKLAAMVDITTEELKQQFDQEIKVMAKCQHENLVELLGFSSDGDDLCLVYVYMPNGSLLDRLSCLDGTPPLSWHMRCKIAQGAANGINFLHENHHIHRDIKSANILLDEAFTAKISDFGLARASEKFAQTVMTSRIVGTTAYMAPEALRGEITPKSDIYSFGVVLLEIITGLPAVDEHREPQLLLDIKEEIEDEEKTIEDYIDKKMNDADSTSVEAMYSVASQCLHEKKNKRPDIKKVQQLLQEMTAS
The assay can be described thus: IRAK4 MSD Degradation in OCI-LY10. As to conditions: OCI-LY10 cells, MSD. The class given is cell-based. Here is the method: Degradation of IRAK4 in OCI-LY10 was quantitatively measured using Meso Scale Discovery technology. […] Compounds were then added to the assay plates with a final top concentration of 1 to 10 μM in a 1:3 dilution series with total of 8 doses. The assay plates were then incubated for 4 to 24 hours at 37° C. under 5% CO2. […] To prepare MSD assay plates (Meso Scale Discovery Catalog number L15XA-3), the plates were coated with 2 μg/mL capture antibody (mouse Anti-IRAK4 antibody [2H9], ab119942) in PBS, at 40 μL/well. […] Cell lysates were then added to MSD assay plates and the plates were incubated at room temperature for 1 hour. The plates were then washed 3 times with 150 μL/well TBST buffer and 25 μL/well primary detection antibody (rabbit Anti-IRAK4 antibody [Y279], from Abcam. Catalog number ab32511, 1 μg/mL). The assay plates were then incubated at room temperature for 1 hour, washed 3 times with 150 μL/well TBST buffer and 25 μL/well secondary detection antibody, SULFO-TAG anti-rabbit antibody were added (anti-rabbit antibody from Meso Scale Discovery, Catalog number R32AB-1, 1 μg/mL). The assay plates were then incubated at room temperature for 1 hour, washed 3 times with 150 μL/well TBST buffer, and 150 μL/well MSD reading buffer (Meso Scale Discovery catalog number R92TC-2) was added. The plates were then analyzed by a MSD reader (Meso Scale Discovery, Model Quick Plex SQ 120). The data was then analyzed by software Prism 7.0 from GraphPad and the dose-depended IRAK4 degradation were fit using a three-parameter logistic equation to calculate DC50.
The letter codes for IRAK4 DC50 include: A (<0.01 μM); B (0.01 to <0.1 μM); C (0.1 to 0.2 μM); and D (>0.2 μM or not tested).

The mark [1] stands for this setting: 4 hrs incubation, read-out: IRAK4 degradation in OCI-LY10 at 4 hrs: DC50.
Where [2] appears, read: 24 hrs incubation, read-out: IRAK4 degradation in OCI-LY10 at 24 hrs: DC50.

Broadly, the DC50 is the concentration giving 50% degradation.

Like-named read-outs stand apart in the source and are kept apart here. Bounds are passed on as bounds.

With `CN1C(=O)CCC(n2c(=O)n(C)c3c(C#CCN4CCN(C[C@H]5CC[C@H](n6cc(NC(=O)c7cnn8ccc(N9C[C@H]%10C[C@@H]9CO%10)nc78)c(C(F)F)n6)CC5)CC4)cccc32)C1=O` (some centres unmarked) [I-43], the DC50 under setting [1] is greater than 200 nM and the DC50 under setting [2] is greater than 200 nM.

As to `Cn1c(=O)n(C2CCC(=O)NC2=O)c2cccc(C#CCN3CCN(C[C@H]4CC[C@H](n5cc(NC(=O)c6cnn7ccc(N8C[C@H]9OC[C@@H]8O9)nc67)c(C(F)F)n5)CC4)CC3)c21` (some centres unmarked) [I-44], the DC50 reads like this: under setting [1], 10 to 100 nM; under setting [2], greater than 200 nM.

`Cn1c(=O)n(C2CCC(=O)NC2=O)c2cccc(C#CCN3C[C@H]4C[C@@H]3CN4C[C@H]3CC[C@H](n4cc(NC(=O)c5cnn6ccc(N7C[C@H]8C[C@@H]7CO8)nc56)c(C(F)F)n4)CC3)c21` (some centres unmarked) [I-45]: the DC50 by setting is: under setting [1], 10 to 100 nM; under setting [2], greater than 200 nM.

For the compound `O=C1CCN(c2cncc3c(C#CCO[C@H]4CCN(C[C@H]5CC[C@H](n6cc(NC(=O)c7cnn8ccc(N9C[C@H]%10C[C@@H]9CO%10)nc78)c(C(F)F)n6)CC5)C[C@H]4F)cccc23)C(=O)N1` [I-46], the DC50 by setting is: under setting [1], less than 10 nM; under setting [2], greater than 200 nM.

Consider `C[C@H]1CN(C[C@H]2CC[C@H](n3cc(NC(=O)c4cnn5ccc(N6C[C@H]7C[C@@H]6CO7)nc45)c(C(F)F)n3)CC2)CC[C@@H]1OCC#Cc1cccc2c1n(C)c(=O)n2C1CCC(=O)N(C)C1=O` (some centres unmarked) [I-47], for which the DC50 under setting [1] was greater than 200 nM and the DC50 under setting [2] was greater than 200 nM.

For the compound `C[C@@H]1CN(C[C@H]2CC[C@H](n3cc(NC(=O)c4cnn5ccc(N6C[C@@H]7C[C@H]6CO7)nc45)c(C(F)F)n3)CC2)CC[C@H]1OCC#Cc1cccc2c1n(C)c(=O)n2C1CCC(=O)NC1=O` (some centres unmarked) [I-48], the DC50 is, setting by setting: under setting [1], 10 to 100 nM; under setting [2], greater than 200 nM.

As to `C[C@@H]1CN(C[C@H]2CC[C@H](n3cc(NC(=O)c4cnn5ccc(N6C[C@H]7C[C@@H]6CO7)nc45)c(C(F)F)n3)CC2)CC[C@H]1OCC#Cc1ccc2c(N3CCC(=O)NC3=O)cncc2c1` [I-49], the DC50 reads like this: under setting [1], 10 to 100 nM; under setting [2], greater than 200 nM.

On to `Cn1c(=O)n(C2CCC(=O)NC2=O)c2cccc(C#CCN3C[C@@H]4C[C@H]3CN4C[C@H]3CC[C@H](n4cc(NC(=O)c5cnn6ccc(N7C[C@H]8C[C@@H]7CO8)nc56)c(C(F)F)n4)CC3)c21` (some centres unmarked) [I-50], for which the DC50 under setting [1] was in the range of 10 to 100 nM and the DC50 under setting [2] was greater than 200 nM.

Consider `COc1ccc2c(c1C#CCO[C@H]1CCN(C[C@H]3CC[C@H](n4cc(NC(=O)c5cnn6ccc(N7C[C@H]8C[C@@H]7CO8)nc56)c(C(F)F)n4)CC3)C[C@H]1F)n(C)c(=O)n2C1CCC(=O)NC1=O` (some centres unmarked) [I-51], for which the half-maximal degradation concentration (DC50) runs as follows: under setting [1], 10 to 100 nM; under setting [2], greater than 200 nM.

As to `O=C1CCN(c2cncc3c(C#CCO[C@@H]4CCN(C[C@H]5C[C@H](n6cc(NC(=O)c7cnn8ccc(N9C[C@H]%10C[C@@H]9CO%10)nc78)c(C(F)F)n6)C5)C[C@@H]4F)cccc23)C(=O)N1` [I-52], the DC50 was less than 10 nM under setting [1] and greater than 200 nM under setting [2].

`C[C@H]1CN(C[C@H]2C[C@H](n3cc(NC(=O)c4cnn5ccc(N6C[C@H]7C[C@@H]6CO7)nc45)c(C(F)F)n3)C2)CC[C@@H]1OCC#Cc1cccc2c(N3CCC(=O)NC3=O)cncc12` [I-53]: the DC50 was less than 10 nM under setting [1] and greater than 200 nM under setting [2].

Take `COc1ccc2c(c1C#CCO[C@@H]1CCN(C[C@H]3C[C@H](n4cc(NC(=O)c5cnn6ccc(N7C[C@H]8C[C@@H]7CO8)nc56)c(C(F)F)n4)C3)C[C@@H]1F)n(C)c(=O)n2C1CCC(=O)NC1=O` (some centres unmarked) [I-54]: the half-maximal degradation concentration (DC50) under setting [1] is less than 10 nM and the DC50 under setting [2] was greater than 200 nM.

Consider `C[C@@H]1CN(C[C@H]2CC[C@H](n3cc(NC(=O)c4cnn5ccc(N6C[C@H]7C[C@@H]6CO7)nc45)c(C(F)F)n3)CC2)CC[C@H]1OCC#Cc1cccc2c(N3CCC(=O)NC3=O)cncc12` [I-55], for which the DC50 is, setting by setting: under setting [1], 10 to 100 nM; under setting [2], greater than 200 nM.

Regarding `C[C@H]1CN(C[C@H]2CC[C@H](n3cc(NC(=O)c4cnn5ccc(N6C[C@H]7C[C@@H]6CO7)nc45)c(C(F)F)n3)CC2)CC[C@@H]1OCC#Cc1cccc2c(N3CCC(=O)NC3=O)cncc12` [I-56], the DC50 runs as follows: under setting [1], less than 10 nM; under setting [2], greater than 200 nM.

Regarding `C[C@H]1CN(C[C@H]2CC[C@H](n3cc(NC(=O)c4cnn5ccc(N6C[C@H]7C[C@@H]6CO7)nc45)c(C(F)F)n3)CC2)CC[C@@H]1OCC#Cc1ccc2c(N3CCC(=O)NC3=O)cncc2c1` [I-57], the DC50 reads like this: under setting [1], 10 to 100 nM; under setting [2], greater than 200 nM.

Take `COc1ccc2c(c1C#CCO[C@H]1CCN(C[C@H]3CC[C@H](n4cc(NC(=O)c5cnn6ccc(N7C[C@H]8C[C@@H]7CO8)nc56)c(C(F)F)n4)CC3)C[C@@H]1C)n(C)c(=O)n2C1CCC(=O)NC1=O` (some centres unmarked) [I-58]: the DC50 reads like this: under setting [1], less than 10 nM; under setting [2], greater than 200 nM.

Take `CCn1c(=O)n(C2CCC(=O)NC2=O)c2cccc(C#CCO[C@H]3CCN(C[C@H]4CC[C@H](n5cc(NC(=O)c6cnn7ccc(N8C[C@H]9C[C@@H]8CO9)nc67)c(C(F)F)n5)CC4)C[C@@H]3C)c21` (some centres unmarked) [I-59]: the DC50 was less than 10 nM under setting [1] and greater than 200 nM under setting [2].

As for `CCn1c(=O)n(C2CCC(=O)NC2=O)c2cccc(C#CCN3CCN(C[C@H]4CC[C@H](n5cc(NC(=O)c6cnn7ccc(N8C[C@H]9C[C@@H]8CO9)nc67)c(C(F)F)n5)CC4)CC3)c21` (some centres unmarked) [I-60], the DC50 by setting is: under setting [1], less than 10 nM; under setting [2], greater than 200 nM.

Turning to `Cn1c(=O)n(C2CCC(=O)NC2=O)c2cccc(N3CCN(C4CCN(C[C@H]5CC[C@H](n6cc(NC(=O)c7cnn8ccc(N9C[C@H]%10C[C@@H]9CO%10)nc78)c(C(F)F)n6)CC5)CC4)CC3)c21` (some centres unmarked) [I-62], the DC50 is less than 10 nM under setting [1] and greater than 200 nM under setting [2].

Take `C[C@H]1CN(C[C@H]2CC[C@H](n3cc(NC(=O)c4cnn5ccc(N6C[C@H]7C[C@@H]6CO7)nc45)c(C(F)F)n3)CC2)CC[C@@H]1OCC#Cc1cccc2c1n(C1CC1)c(=O)n2C1CCC(=O)NC1=O` (some centres unmarked) [I-63]: the DC50 under setting [1] is less than 10 nM and the DC50 under setting [2] is greater than 200 nM.

In the case of `COc1ccc2c(c1C#CCO[C@@H]1CCN(C[C@H]3CC[C@H](n4cc(NC(=O)c5cnn6ccc(N7C[C@H]8C[C@@H]7CO8)nc56)c(C(F)F)n4)CC3)C[C@H]1C)n(C)c(=O)n2C1CCC(=O)NC1=O` (some centres unmarked) [I-64], the DC50 runs as follows: under setting [1], less than 10 nM; under setting [2], greater than 200 nM.

Regarding `O=C1CCC(n2c(=O)n(C3CC3)c3c(C#CCOC4CCN(C[C@H]5CC[C@H](n6cc(NC(=O)c7cnn8ccc(N9C[C@H]%10C[C@@H]9CO%10)nc78)c(C(F)F)n6)CC5)CC4)cccc32)C(=O)N1` (some centres unmarked) [I-65], the DC50 is less than 10 nM under setting [1] and greater than 200 nM under setting [2].

As for `Cn1c(=O)n(C2CCC(=O)NC2=O)c2cccc(C3CC(CN4CCN(C[C@H]5CC[C@H](n6cc(NC(=O)c7cnn8ccc(N9C[C@H]%10C[C@@H]9CO%10)nc78)c(C(F)F)n6)CC5)CC4)C3)c21` (some centres unmarked) [I-66], the DC50 reads like this: under setting [1], less than 10 nM; under setting [2], greater than 200 nM.

Take `Cn1c(=O)n(C2CCC(=O)NC2=O)c2cccc(C3CC(OC4CCN(C[C@H]5CC[C@H](n6cc(NC(=O)c7cnn8ccc(N9C[C@H]%10C[C@@H]9CO%10)nc78)c(C(F)F)n6)CC5)CC4)C3)c21` (some centres unmarked) [I-68]: the DC50 was less than 10 nM under setting [1] and greater than 200 nM under setting [2].

In the case of `Cn1c(=O)n(C2CCC(=O)NC2=O)c2cccc(N3CCC(N4CCN(C[C@H]5CC[C@H](n6cc(NC(=O)c7cnn8ccc(N9C[C@H]%10C[C@@H]9CO%10)nc78)c(C(F)F)n6)CC5)CC4)CC3)c21` (some centres unmarked) [I-69], the DC50 by setting is: under setting [1], less than 10 nM; under setting [2], greater than 200 nM.

For `CCn1c(=O)n(C2CCC(=O)NC2=O)c2cccc(C#CCOC3CCN(C[C@H]4CC[C@H](n5cc(NC(=O)c6cnn7ccc(N8C[C@H]9C[C@@H]8CO9)nc67)c(C(F)F)n5)CC4)CC3)c21` (some centres unmarked) [I-70], the DC50 by setting is: under setting [1], less than 10 nM; under setting [2], greater than 200 nM.

For `O=C1CCN(c2cncc3c(C4CCN(C5CCN(C[C@H]6CC[C@H](n7cc(NC(=O)c8cnn9ccc(N%10C[C@H]%11C[C@@H]%10CO%11)nc89)c(C(F)F)n7)CC6)CC5)CC4)cccc23)C(=O)N1` [I-74], the DC50 by setting is: under setting [1], less than 10 nM; under setting [2], greater than 200 nM.

With `O=C1CCN(c2cncc3cc(C4CCN(C5CCN(C[C@H]6CC[C@H](n7cc(NC(=O)c8cnn9ccc(N%10C[C@H]%11C[C@@H]%10CO%11)nc89)c(C(F)F)n7)CC6)CC5)CC4)ccc23)C(=O)N1` [I-75], the DC50 was less than 10 nM under setting [1] and greater than 200 nM under setting [2].

Source of the values: US12091411B2, “IRAK degraders and uses thereof” (Kymera Therapeutics, Inc., priority 2022, dated 2024).
